Results on two compounds are retold here after US10662168B2, “Compounds for treating parasitic infections” (University of Maryland, College Park, priority 2015, dated 2020).

A short description of data set [1]: Drug-like parameters: Log P and solubility. The format is physicochemical.
Data set [2] relates to intracellular forms of Leishmania (L. amazonensis amastigotes in BMDMs). Briefly: Dose response in BMDMs infected with L. amazonensis amastigotes, released amastigotes transformed to promastigotes, AlamarBlue. The format is cell-based. Here is the method:
(§1) FIG. 5. Dose response curves (IC50) of FX40 (∘) and the novel derivative compound FX104 (●). (A) BMDMs infected with L. amazonensis amastigotes were treated with various concentrations of the indicated compound for 72 h. BMDMs were lysed and released amastigotes were transformed to promastigotes for 48 h at 26° C. IC50 values were calculated by quantitation of % promastigote growth using AlamarBlue. (B) Dose response of uninfected BMDMs to compounds. (C) A table showing selectivity criteria for drug efficacy studies. (D) A table showing a summary of high throughput screening.
(§2) To validate the […] efficacy of lead compounds against intracellular amastigotes in macrophages, primary bone marrow-derived macrophages (BMDMs) from mice were obtained and infected them with L. amazonensis amastigotes followed by incubation for 72 h with LHR1 antagonists or amphotericin B which kills intracellular Leishmania, as a positive control. Cells were then fixed and stained with DAPI which permits visualization of the host macrophage nuclei and parasite nuclei and kinetoplasts. Images collected with fluorescent microscopy were used to determine the ratio between total number of parasites and total number of host cells per treatment. Toxicity to host cells were measured by AlamarBlue viability assays. […] (Sch. 1 and FIG. 4A) The structure of FX104 is shown in Scheme 1.

Another data set has as its target P-gp (Homo sapiens, UniProt P08183). Briefly: Drug-like parameters: P-gp efflux. The format is in vitro ADME.
Data set [3] is described as follows: Drug-like parameters: absorption and metabolic stability. The format is in vitro ADME.
In another data set the test system is BMDMs. Briefly: Toxicity to uninfected host BMDMs (AlamarBlue viability). The format is cell-based, mouse. To be noted: even at 40-fold greater concentrations. Here is the method:
as §1, §2

The test system of data set [4] is intracellular L. donovani. To be noted: cited from earlier work.
The subject of data set [5] is intracellular forms of Leishmania (L. amazonensis amastigotes in BMDMs). To be noted: benchmark value; read-out: IC50 against intra-macrophage L. amazonensis; cited from earlier work.

pIC50: −log10 of the molar value. Where two headings read alike, the source gives them in different places.

Chain of P-gp (P08183 whole entry): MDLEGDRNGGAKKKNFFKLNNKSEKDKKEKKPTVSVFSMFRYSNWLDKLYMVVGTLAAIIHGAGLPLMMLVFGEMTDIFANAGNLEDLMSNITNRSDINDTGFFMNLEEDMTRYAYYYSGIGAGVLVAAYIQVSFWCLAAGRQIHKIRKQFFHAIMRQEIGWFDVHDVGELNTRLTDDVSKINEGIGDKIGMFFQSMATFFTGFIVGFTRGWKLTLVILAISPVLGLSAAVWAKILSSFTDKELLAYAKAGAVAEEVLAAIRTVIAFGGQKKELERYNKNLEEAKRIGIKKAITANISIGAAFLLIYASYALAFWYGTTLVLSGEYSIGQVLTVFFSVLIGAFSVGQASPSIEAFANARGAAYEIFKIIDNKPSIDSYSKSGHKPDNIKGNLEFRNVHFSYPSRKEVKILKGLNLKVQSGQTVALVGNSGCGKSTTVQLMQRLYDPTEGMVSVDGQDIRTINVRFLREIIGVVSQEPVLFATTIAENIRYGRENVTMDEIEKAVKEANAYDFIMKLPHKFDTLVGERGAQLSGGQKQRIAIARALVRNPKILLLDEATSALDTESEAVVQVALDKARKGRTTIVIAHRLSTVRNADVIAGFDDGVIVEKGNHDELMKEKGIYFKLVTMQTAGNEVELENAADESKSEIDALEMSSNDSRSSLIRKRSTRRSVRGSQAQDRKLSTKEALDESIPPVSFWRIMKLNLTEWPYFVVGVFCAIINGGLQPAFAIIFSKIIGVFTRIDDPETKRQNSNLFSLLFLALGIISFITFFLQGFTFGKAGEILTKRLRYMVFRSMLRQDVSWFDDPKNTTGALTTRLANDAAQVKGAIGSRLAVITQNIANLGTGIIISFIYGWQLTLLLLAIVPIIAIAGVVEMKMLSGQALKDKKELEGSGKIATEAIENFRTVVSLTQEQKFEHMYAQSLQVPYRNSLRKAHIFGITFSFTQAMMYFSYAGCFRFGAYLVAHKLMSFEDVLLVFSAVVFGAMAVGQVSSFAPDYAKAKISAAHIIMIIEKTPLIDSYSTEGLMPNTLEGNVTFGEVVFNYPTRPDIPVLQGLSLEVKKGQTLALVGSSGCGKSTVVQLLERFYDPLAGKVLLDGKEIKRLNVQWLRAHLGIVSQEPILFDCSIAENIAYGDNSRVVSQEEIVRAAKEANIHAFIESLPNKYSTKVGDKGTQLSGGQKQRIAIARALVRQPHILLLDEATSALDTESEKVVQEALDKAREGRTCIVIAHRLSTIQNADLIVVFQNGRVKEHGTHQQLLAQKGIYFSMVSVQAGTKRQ

With `Cc1ccc([C@]2(NCCN(C)C)OC(=O)c3cccc(F)c32)cc1C` [FX104], the solubility result in data set [1] is “better”. For the same compound, the pIC50 in data set [2] (BMDM, BMDMs infected with L. amazonensis amastigotes, 72 h, read-out: IC50 against intracellular forms of Leishmania) is 6.60. The “fold more effective against intracellular forms of Leishmania than FX40” value in data set [2] (FX104 versus FX40) is on record as “over 30 fold”. The P-gp efflux result on P-gp is reported as “decreased”. In data set [3], the absorption result is recorded as “better” and the metabolic stability entry is on record as “better”. Further, the “toxicity in BMDMs” value in the data set on BMDMs is “little or no toxicity”.
Consider `C[C@@H]1[C@H](O)[C@@H](C)/C=C/C=C/C=C/C=C/C=C/C=C/C=C/[C@H](O[C@@H]2O[C@H](C)[C@@H](O)[C@H](N)[C@@H]2O)C[C@@H]2O[C@](O)(C[C@@H](O)C[C@@H](O)[C@H](O)CC[C@@H](O)C[C@@H](O)CC(=O)O[C@H]1C)C[C@H](O)[C@H]2C(=O)O` [Amphotericin B], for which the pIC50 was 7.22 to 7.70 in data set [4] (benchmark value, read-out: IC50 for intra-macrophage L. donovani) and 7.00 to 7.30 in data set [5]. In data set [4] (benchmark, intra-macrophage Leishmania), the efficacy is listed as more than 90%.
